Assay: xn = mol fraction of the nth substance listed

CC[n+]1ccn(C)c1.F[P-](F)(F)(F)(F)F + O
viscosity [mPa·s], 100 kPa
Settings | 298.15 K | 303.15 K | 308.15 K
x1 = 1.802e-05 | 0.919 | 0.85 | 0.777
x1 = 5.406e-05 | 0.933 | 0.855 | 0.782
x1 = 9.009e-05 | 0.948 | 0.86 | 0.787

CC[n+]1ccn(C)c1.[Br-] + O
viscosity [mPa·s], 100 kPa
Settings | 288.15 K | 298.15 K | 303.15 K | 308.15 K | 318.15 K | 333.15 K
x1 = 0.0001802 | 1.141 | 0.911 | – | 0.744 | 0.627 | –
x1 = 0.0007203 | 1.147 | 0.916 | – | 0.748 | 0.632 | –
x1 = 0.00126 | 1.152 | 0.923 | – | 0.754 | 0.639 | –
x1 = 0.049 | – | – | 1.48 | – | – | 0.797
x1 = 0.1978 | – | – | 5.45 | – | – | –

C[N+](C)(C)CCO.O=C([O-])[C@@H]1CCCN1 + O
viscosity [mPa·s], 100 kPa
Settings | x1 = 0.01436 | x1 = 0.02022 | x1 = 0.03417
308.15 K | 1.18 | 1.23 | –
338.15 K | – | – | 1.23

NCCOCCO + O + CCCC[n+]1ccn(C)c1.O=S(=O)([O-])C(F)(F)F
viscosity [mPa·s], 101 kPa
Settings | 293.15 K | 298.15 K | 303.15 K | 308.15 K | 313.15 K | 318.15 K | 323.15 K | 328.15 K | 333.15 K
x1 = 0.182, x2 = 0.8049 | 11.31 | 9.2 | 7.59 | 6.34 | 5.37 | 4.581 | 3.959 | 3.457 | 3.052
x1 = 0.2233, x2 = 0.7322 | 15.97 | 12.84 | 10.48 | 8.66 | 7.252 | 6.139 | 5.248 | 4.534 | 3.956
x1 = 0.4053, x2 = 0.4752 | 28.79 | 22.55 | 17.99 | 14.6 | 12.01 | 10.05 | 8.52 | 7.25 | 6.179

O=[N+]([O-])[O-].O=[N+]([O-])[O-].[Mg+2] + O + CC[NH3+].O=[N+]([O-])[O-]
100 kPa
Settings | electrical conductivity [S/m] | viscosity [mPa·s]
223 K, x1 = 0.2128, x2 = 0.6185 | 0.001 | –
233 K, x1 = 0.2128, x2 = 0.6185 | 0.006 | –
243 K, x1 = 0.1395, x2 = 0.4931 | 0.002 | –
243 K, x1 = 0.2128, x2 = 0.6185 | 0.02 | –
253 K, x1 = 0.1395, x2 = 0.4931 | 0.019 | –
253 K, x1 = 0.2128, x2 = 0.6185 | 0.052 | –
263 K, x1 = 0.1395, x2 = 0.4931 | 0.077 | –
263 K, x1 = 0.2128, x2 = 0.6185 | 0.113 | –
273 K, x1 = 0.1395, x2 = 0.4931 | 0.206 | –
273 K, x1 = 0.2128, x2 = 0.6185 | 0.216 | –
283 K, x1 = 0.1395, x2 = 0.4931 | 0.429 | –
283 K, x1 = 0.2128, x2 = 0.6185 | 0.375 | –
288.15 K, x1 = 0.1395, x2 = 0.4931 | – | 172
288.15 K, x1 = 0.2128, x2 = 0.6185 | – | 334
293 K, x1 = 0.1395, x2 = 0.4931 | 0.76 | –
293 K, x1 = 0.2128, x2 = 0.6185 | 0.602 | –
293.15 K, x1 = 0.1395, x2 = 0.4931 | – | 138.7
293.15 K, x1 = 0.2128, x2 = 0.6185 | – | 253
298.15 K, x1 = 0.1395, x2 = 0.4931 | – | 112.6
298.15 K, x1 = 0.2128, x2 = 0.6185 | – | 193
303 K, x1 = 0.1395, x2 = 0.4931 | 1.2 | –
303 K, x1 = 0.2128, x2 = 0.6185 | 0.91 | –
303.15 K, x1 = 0.1395, x2 = 0.4931 | – | 92
303.15 K, x1 = 0.2128, x2 = 0.6185 | – | 148.9
308.15 K, x1 = 0.1395, x2 = 0.4931 | – | 75.7
308.15 K, x1 = 0.2128, x2 = 0.6185 | – | 115.8
313 K, x1 = 0.1395, x2 = 0.4931 | 1.74 | –
313 K, x1 = 0.2128, x2 = 0.6185 | 1.31 | –
313.15 K, x1 = 0.1395, x2 = 0.4931 | – | 62.7
313.15 K, x1 = 0.2128, x2 = 0.6185 | – | 90.7
323 K, x1 = 0.1395, x2 = 0.4931 | 2.37 | –
323 K, x1 = 0.2128, x2 = 0.6185 | 1.8 | –
333 K, x1 = 0.1395, x2 = 0.4931 | 3.08 | –
333 K, x1 = 0.2128, x2 = 0.6185 | 2.39 | –
343 K, x1 = 0.1395, x2 = 0.4931 | 3.86 | –
343 K, x1 = 0.2128, x2 = 0.6185 | 3.08 | –
353 K, x1 = 0.1395, x2 = 0.4931 | 4.69 | –
353 K, x1 = 0.2128, x2 = 0.6185 | 3.88 | –
363 K, x1 = 0.1395, x2 = 0.4931 | 5.56 | –
363 K, x1 = 0.2128, x2 = 0.6185 | 4.78 | –
373 K, x1 = 0.1395, x2 = 0.4931 | 6.46 | –
373 K, x1 = 0.2128, x2 = 0.6185 | 5.78 | –

CCCC[n+]1ccn(C)c1.O=[N+]([O-])[O-] + O + NCCO
100 kPa
Settings | viscosity [mPa·s]
303 K, x1 = 0.2218, x2 = 0.4128 | 15.07
303 K, x1 = 0.2959, x2 = 0.2542 | 17.98
308 K, x1 = 0.2218, x2 = 0.4128 | 12.54
308 K, x1 = 0.2959, x2 = 0.2542 | 14.93
313 K, x1 = 0.01284, x2 = 0.8603 | 2.342
313 K, x1 = 0.02953, x2 = 0.8245 | 2.9
313 K, x1 = 0.05213, x2 = 0.7761 | 3.701
313 K, x1 = 0.08442, x2 = 0.707 | 4.94
313 K, x1 = 0.1343, x2 = 0.6001 | 6.9
313 K, x1 = 0.2218, x2 = 0.4128 | 10.58
313 K, x1 = 0.2959, x2 = 0.2542 | 12.55
313 K, x1 = 0.4146, x2 = 0 | 17.77
318 K, x1 = 0.2218, x2 = 0.4128 | 9.05
318 K, x1 = 0.2959, x2 = 0.2542 | 10.69
323 K, x1 = 0.2218, x2 = 0.4128 | 7.81
323 K, x1 = 0.2959, x2 = 0.2542 | 9.2
